According to patent US20230192617A1, “AZABICYCLIC(THIO)AMIDES AS FUNGICIDAL COMPOUNDS” (Bayer CropScience Aktiengesellschaft, priority 2020, published 2023):

Experiments:
Alternaria alternata = Alternaria alternata in vitro cell test; type: cell-based; conditions: 120 h, 20 ppm of active ingredient, liquid culture, 5 days incubation, spectrometric measurement of mycelium growth, read-out: efficacy (inhibition of fungal growth)
How it was run: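 Spectrometric readout of mycelial growth after 5-day incubation gauged compound effects on spore germination and growth of A. alternata in liquid medium. Compounds were delivered in DMSO at ≤1% final. Absorbance was compared with untreated controls to give inhibition.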

[1] = tested on: Colletotrichum lindemuthianum; assay: In vivo preventive test on Colletotrichum lindemuthianum (leaf spot on bean); conditions: 168 h, 500 ppm of active ingredient, preventive spray on bean, evaluated 7 days after inoculation, read-out: efficacy
How it was run: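 Young bean plants sprayed with compound in DMSO/acetone/Tween 80 diluted in water; solvent-only controls. Inoculated 24 h later with C. lindemuthianum spore suspension, then kept 24 h at 20 °C/100% RH and 6 days at 20 °C/90% RH.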

Botrytis cinerea [2] = assay: B-11. Botrytis cinerea in vitro cell test; type: cell-based; conditions: 144 h, 20 ppm of active ingredient, 6 days incubation, liquid culture, absorbance, read-out: efficacy (inhibition of fungal growth)
How it was run: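 B. cinerea spores were grown in liquid culture with compound (DMSO ≤1% final). Mycelium growth was measured spectrometrically after 6 days, with inhibition taken as absorbance relative to untreated control wells.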

Pyrenophora teres [3] = assay: B-10. Pyrenophora teres in vitro cell test; type: cell-based; conditions: 144 h, 20 ppm of active ingredient, 6 days incubation, liquid culture, absorbance, read-out: efficacy (inhibition of fungal growth)
How it was run: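 Liquid-culture assay on a P. teres spore suspension with compounds added to the medium from DMSO solutions, final DMSO ≤1%. Mycelium growth read spectrometrically after 6 days. Inhibition calculated from absorbance against untreated control wells.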

Pyrenophora teres [4] = assay: In vivo preventive test on Pyrenophora teres (net blotch on barley); conditions: 240 h, 500 ppm of active ingredient, preventive spray on barley, evaluated 10 days after inoculation, read-out: efficacy
How it was run: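 Net blotch spores were sprayed onto barley leaves one day after foliar treatment with water-diluted DMSO/acetone/Tween 80 formulations (solvent-only controls). Plants were kept at 20° C: first 48 hours at 100% relative humidity, then 8 days at 70-80%.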

[5] = Measurement of Log P values by HPLC on reversed phase columns (EEC directive 79/831 Annex V.A8); type: physicochemical; conditions: reversed phase HPLC column, method [a]: LC-UV, acidic range, 0.1% formic acid in water and acetonitrile as eluent
How it was run: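 Log P derived from retention on reversed-phase columns (EEC directive 79/831 Annex V.A8), LC-UV, acetonitrile gradient 10% to 95% against water containing 0.1% formic acid, 0.001 M ammonium acetate, or 0.1% phosphoric acid; several values per method separated by "+".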

Alternaria brassicae = assay: In vivo preventive test on Alternaria brassicae (leaf spot on radish or cabbage); conditions: 500 ppm of active ingredient, preventive spray on radish or cabbage, evaluated 3 to 4 days after inoculation, read-out: efficacy
How it was run: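 Protective spray on young radish or cabbage: actives in water diluted from DMSO/acetone/Tween 80, with solvent-only controls. Leaves were challenged after 24 h with a spore suspension, and plants were held at 100% RH, 20 °C for 3 to 4 days.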

Septoria tritici = assay: B-9. Septoria tritici in vitro cell test; type: cell-based; conditions: Zymoseptoria tritici, 168 h; 20 ppm of active ingredient; 7 days incubation; liquid culture, absorbance; read-out: efficacy (inhibition of fungal growth)
Protocol: B-9. Septoria tritici In Vitro Cell Test [table] Fungicides were solubilized in DMSO and the solution used to prepare the required range of concentrations. The final concentration of DMSO used in the assay was ≤1%. A spore suspension of S. tritici was prepared and diluted to the desired spore density. Fungicides were evaluated for their ability to inhibit spore germination and mycelium growth in liquid culture assay. The compounds were added in the desired concentration to the culture medium with spores. After 7 days incubation, fungi-toxicity of compounds was determined by spectrometric measurement of mycelium growth. Inhibition of fungal growth was determined by comparing the absorbance values in wells containing the fungicides with the absorbance in control wells without fungicides.

Botrytis cinerea [6] = assay: In vivo preventive test on Botrytis cinerea (grey mould); conditions: 500 ppm of active ingredient, preventive spray on gherkin or cabbage, evaluated 4 to 5 days after inoculation, read-out: efficacy
How it was run: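 Preventive spray on cabbage or gherkin seedlings, with compound formulated in DMSO/acetone/Tween 80 and water-diluted, preceded spore inoculation by 24 hours. Cabbage was held 4 to 5 days at 20° C., 100% relative humidity; gherkin 4 to 5 days at 17° C., 90% relative humidity.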

[7] = tested on: Colletotrichum lindemuthianum; assay: B-8. Colletotrichum lindemuthianum in vitro cell test; type: cell-based; conditions: 144 h, 20 ppm of active ingredient, 6 days incubation, liquid culture, absorbance, read-out: efficacy (inhibition of fungal growth)
How it was run: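 Liquid-culture germination/growth test: compounds in ≤1% final DMSO were added to spore-containing medium. Fungal growth was quantified spectrophotometrically after 6 days of incubation and expressed as inhibition versus untreated controls.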

Sphaerotheca fuliginea = assay: In vivo preventive test on Sphaerotheca fuliginea (powdery mildew on cucurbits); conditions: Podosphaera fuliginea, 192 h; 500 ppm of active ingredient; preventive spray on gherkin; evaluated 8 days after inoculation; read-out: efficacy
How it was run: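 This is a preventive spray test on gherkin seedlings, with compound formulated in DMSO/acetone/Tween 80 in water and solvent-only controls. Spore inoculation followed one day after treatment. Incubation lasted 8 days at 20 °C, 70–80% RH.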

SMILES | inhibition at 20 ppm (Alternaria alternata) | pest or weed control at 500 ppm [1] | inhibition at 20 ppm (Botrytis cinerea [2]) | inhibition at 20 ppm (Pyrenophora teres [3]) | pest or weed control at 500 ppm (Pyrenophora teres [4]) | chromatographic logP [5] | pest or weed control at 500 ppm (Alternaria brassicae) | inhibition at 20 ppm (Septoria tritici) | pest or weed control at 500 ppm (Botrytis cinerea [6]) | inhibition at 20 ppm [7] | pest or weed control at 500 ppm (Sphaerotheca fuliginea)
COc1cc([C@@H](F)CNC(=O)c2c(Oc3cccc(C(F)(F)F)c3)nnc3ccccc23)ccc1Cl (racemic) [I-176] | 90 to 100% | 70 to 79% | 90 to 100% | 90 to 100% | 80 to 89% | 3.92 | 90 to 100% | 80 to 89% | – | – | –
O=C(NCCc1ncc(Cl)cn1)c1c(Oc2cccc(C(F)(F)F)c2)nnc2ccccc12 [I-077] | 90 to 100% | 70 to 79% | 90 to 100% | 90 to 100% | – | 2.91 | 90 to 100% | 90 to 100% | 90 to 100% | 90 to 100% | –
O=C(NCCc1ccc2c(c1)CCO2)c1c(Oc2cccc(C(F)(F)F)c2)nnc2ccccc12 [I-081] | 90 to 100% | 90 to 100% | 90 to 100% | 90 to 100% | – | 3.53 | 90 to 100% | 70 to 79% | 90 to 100% | 90 to 100% | –
Cc1ccc(C(F)(F)CNC(=O)c2c(Oc3cccc(C4CC4)c3F)cnc3nccnc23)c(C)c1 [I-099] | 90 to 100% | 90 to 100% | 90 to 100% | 90 to 100% | – | 3.71 | 90 to 100% | 80 to 89% | 90 to 100% | 90 to 100% | –
Cc1ccc(C(F)(F)CNC(=O)c2c(Oc3cccc(C(F)(F)F)c3)nnc3c2CCCC3)c(C)c1 [I-115] | 90 to 100% | 90 to 100% | – | 90 to 100% | 90 to 100% | 4.05 | 90 to 100% | 90 to 100% | 90 to 100% | 90 to 100% | 90 to 100%
Cc1ccc(C(F)(F)CNC(=O)c2c(Oc3cccc(C(F)(F)F)c3)nnc3c2COCC3)c(C)c1 [I-122] | 90 to 100% | 80 to 89% | 90 to 100% | 90 to 100% | – | 3.7 | 90 to 100% | 90 to 100% | 90 to 100% | 90 to 100% | 90 to 100%
Cc1cc(Cl)ccc1C(F)(F)CNC(=O)c1c(Oc2cccc(C3CC3)c2F)nnc2c1CCCC2 [I-147] | 90 to 100% | 90 to 100% | – | 90 to 100% | 90 to 100% | 4.34 | 90 to 100% | 90 to 100% | 90 to 100% | 90 to 100% | 90 to 100%
O=C(NCC(F)(F)c1ccc(Cl)cc1Cl)c1c(Oc2cccc(C(F)(F)F)c2)nnc2c1CCCC2 [I-189] | 90 to 100% | 90 to 100% | 90 to 100% | 90 to 100% | 80 to 89% | 4.23 | – | 90 to 100% | 90 to 100% | 90 to 100% | 90 to 100%
O=C(NCC(F)(F)c1ccc(Cl)cc1Cl)c1c(Oc2cccc(C(F)F)c2)nnc2c1CCCC2 [I-191] | 90 to 100% | 90 to 100% | 90 to 100% | 90 to 100% | 90 to 100% | 3.73 | – | 90 to 100% | 90 to 100% | 90 to 100% | 90 to 100%
O=C(NCC(F)(F)c1ccc(Cl)cc1Cl)c1c(Oc2cccc(Cl)c2)nnc2c1CCCC2 [I-192] | 90 to 100% | 90 to 100% | 90 to 100% | 90 to 100% | 90 to 100% | 4 | – | 90 to 100% | 90 to 100% | 90 to 100% | 90 to 100%
O=C(NCC(F)(F)c1ccc(Cl)cc1Cl)c1c(Oc2cccc(Cl)c2F)nnc2c1CCCC2 [I-194] | 90 to 100% | 90 to 100% | 90 to 100% | 90 to 100% | 90 to 100% | 4.05 | – | 90 to 100% | 90 to 100% | 90 to 100% | 90 to 100%
O=C(NCC(F)(F)c1ccc(Cl)cc1Cl)c1c(Oc2cccc(C3CC3)c2F)nnc2c1CCCC2 [I-196] | 90 to 100% | 90 to 100% | 90 to 100% | 90 to 100% | 90 to 100% | 4.28 | – | 90 to 100% | 90 to 100% | 90 to 100% | 90 to 100%
Cc1ccc(C(F)(F)CNC(=O)c2c(Oc3cccc(Cl)c3)cnc3nccnc23)c(C)c1 [I-234] | 90 to 100% | 80 to 89% | 90 to 100% | 90 to 100% | – | 3.37 | 90 to 100% | 90 to 100% | 90 to 100% | 90 to 100% | –
Cc1ccc(C(F)(F)CNC(=O)c2c(Oc3cccc(C(F)(F)F)c3)nnc3cc(C4CC4)ccc23)cc1C [I-235] | 90 to 100% | – | 90 to 100% | 90 to 100% | 80 to 89% | 5 | 90 to 100% | 90 to 100% | 90 to 100% | 90 to 100% | 90 to 100%
Cc1ccc(C(F)(F)CNC(=O)c2c(Oc3cccc(Br)c3)cnc3nccnc23)c(C)c1 [I-241, 7-(3-bromophenoxy)-N-[2-(2,4-dimethylphenyl)-2,2-difluoro-ethyl]pyrido[2,3-b]pyrazine-8-carboxamide] | 90 to 100% | 90 to 100% | 90 to 100% | 90 to 100% | – | 3.46 | 90 to 100% | 90 to 100% | 90 to 100% | 90 to 100% | –
Cc1ccc(C(F)(F)CNC(=O)c2c(Oc3cccc(C(F)(F)F)c3)nnc3cc(C4CC4)ccc23)c(C)c1 [I-242] | 90 to 100% | – | 90 to 100% | 90 to 100% | 70 to 79% | 5.12 | 90 to 100% | 80 to 89% | 90 to 100% | 90 to 100% | 80 to 89%
